The values below come from ChEMBL document CHEMBL1201862, “PubChem BioAssay data set” (2004).

Experiment [1] addresses Paired box protein Pax-8 (Homo sapiens, UniProt Q06710). The experiment is described as follows: PAX8 transcriptional activity inhibition in RMG-I – RMG-I cells, luciferase, cherry-pick, dose response (AID 687027).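 Further: luciferase reporter driven by Pax8 target thyroperoxidase promoter measured by SteadyGlo luminescence.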 Type of experiment: functional, cell-based.
Experiment [2] can be described thus: inhibitors acting on PAX2 in cells – cell-based, plate reader, dry powder samples, selectivity assay for PAX8 inhibitor project, dose response (AID 743048).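 Further: HEK293 cells carrying a WT1 promoter luciferase reporter driven by expressed Pax2; potency is for inhibition of Pax2 driven reporter signal.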 Type of experiment: functional.
Experiment [3] in a line: PAX5 cellular inhibition readout – cell-based, plate reader, dry powder samples, selectivity assay for PAX8 inhibitor project, dose response (AID 743047).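 Further: HEK293 cells carrying a Pax5 driven CD19 promoter luciferase reporter; potency of inhibitors that lower reporter luminescence.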 Type of experiment: functional.
Experiment [4] in a line: PAX8-dependent cell viability loss – plate reader, dry powder, dose response (AID 743049). Type of experiment: functional, cell-based.
A short description of experiment [5]: T. cruzi growth inhibition in host cells, dose response, cell-based, plate reader, dry powder, set 2 (AID 652275). Type of experiment: functional.
A short description of experiment [6]: anti-trypanosomal activity in BESM host cells – imaging, CA-I/72 strain, bovine embryo skeletal muscle, dry powder, dose response (AID 651885). The class given is functional, cell-based.
Experiment [7] in a line: Trypanosoma cruzi replication inhibitors in host cells – cell-based, plate reader, dry powder samples, dose response (AID 651845). The class given is functional.
Experiment [8] is described as follows: antileishmanial activity on axenic amastigotes – plate reader, cherry pick, dose response (AID 651891). Type of experiment: functional, cell-based. The conditions noted are these: Leishmania donovani.
Experiment [9] is described as follows: Inhibition of T. cruzi Tulahuen strain amastigotes in L-6 muscle cells Measured in Cell-Based and Microorganism Combination System Using Plate Reader - 2138-03_Inhibitor_Dose_CherryPick_Activity. Type of experiment: functional. As to conditions: Rattus norvegicus, L6.
Experiment [10] can be described thus: African trypanosome bloodstream form growth inhibition – STIB900 strain, plate reader, cherry pick, dose response (AID 651893). As to conditions: Trypanosoma brucei. Type of experiment: functional, cell-based, Trypanosoma brucei rhodesiense.
Experiment [11] in a line: Inhibition of Plasmodium falciparum NF54 Measured in Cell-Based System Using Plate Reader - 2138-11_Inhibitor_Dose_CherryPick_Activity. The class given is functional.
A short description of experiment [12]: L6 myocyte viability loss – cell-based, plate reader, cherry-pick, cytotoxicity control, dose response (AID 651896). The class given is functional.
Experiment [13] is described as follows: intracellular Trypanosoma cruzi inhibitors in host cells – cell-based, plate reader, cherry-pick samples, set 3, dose response (AID 651818).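 Further: compounds incubated with infected cells for about four days.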 Type of experiment: functional.
The target in experiment [14] is T1, Mannose-6-phosphate isomerase (Homo sapiens, UniProt P34949).
T1 sequence (P34949 whole entry): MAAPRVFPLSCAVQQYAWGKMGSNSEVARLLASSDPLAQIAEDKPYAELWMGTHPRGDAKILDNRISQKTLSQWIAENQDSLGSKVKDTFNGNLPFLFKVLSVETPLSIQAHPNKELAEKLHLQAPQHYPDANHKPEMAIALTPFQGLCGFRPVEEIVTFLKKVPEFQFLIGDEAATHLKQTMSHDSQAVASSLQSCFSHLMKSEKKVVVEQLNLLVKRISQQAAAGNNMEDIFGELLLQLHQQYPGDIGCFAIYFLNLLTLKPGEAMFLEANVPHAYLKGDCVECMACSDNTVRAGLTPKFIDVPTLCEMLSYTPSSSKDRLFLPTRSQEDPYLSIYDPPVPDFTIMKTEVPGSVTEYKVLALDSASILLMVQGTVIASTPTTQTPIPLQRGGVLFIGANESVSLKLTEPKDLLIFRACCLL
The experiment is described as follows: MPI inhibition at elevated mannose 6-phosphate – biochemical, fluorescence intensity, high mannose 6-phosphate, primary screen (AID 1220).

Experiment [15] deals with Heat shock protein HSP90 (Homo sapiens, UniProt P07900+P08238). The experiment is described as follows: Hsp90 blockade concentration-response – dose response (AID 712). Type of experiment: functional.
Experiment [16] can be described thus: Dd2 parasite growth inhibition in erythrocytes – SYBR Green, dry powder samples, set 9, dose response (AID 1159568). The class given is functional, cell-based.
Experiment [17] can be described thus: growth inhibition of yeast DHODH-expressing 3D7 parasites – SYBR Green, dry powder samples, dose response (AID 1159570).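 Further: parasite growth measured after 72 hours of compound exposure.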 Type of experiment: functional, cell-based.
Experiment [18] is described as follows: growth inhibition of PfATP4-mutant resistant parasites – NITD609-resistant line, SYBR Green, dry powder, dose response (AID 1159571).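 Further: parasites synchronized at ring stage by sorbitol before testing.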 Type of experiment: functional, cell-based.
Experiment [19] is described as follows: P. falciparum Dd2 growth inhibitors, dose response, SYBR Green, cherry-picked samples (AID 1159567). Type of experiment: functional, cell-based.
Experiment [20] is described as follows: Dd2 malaria parasite growth inhibition potency – SYBR Green, dry powder samples, dose response (AID 1159566).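 Further: potency for growth inhibition with lower SYBR green DNA signal.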 The class given is functional, cell-based.
Experiment [21] is described as follows: toxicity to human HepG2 hepatoma cells – cell-based, plate reader, dry powder samples, cytotoxicity control, dose response (AID 1159569).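 Further: inhibitor potency with signal falling toward the positive control level.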 Type of experiment: functional.
The nature of experiment [22]: Potency on glucagon-like peptide 1 release, dose-response in NCI-H716 cell line, half maximal inhibitory concentration (AID 1117344). Type of experiment: functional, cell-based.
Experiment [23] is described as follows: glucagon-like peptide-1 release potency in STC-1, concentration-response, half-maximal inhibitory concentration in the STC-1 line (AID 1117345). The class given is functional, cell-based.
Experiment [24] is described as follows: rise of 4N DNA cells, HeLa – IC50, dose response (AID 1117351). The class given is functional, cell-based.
The nature of experiment [25]: rise of 2N DNA cells, HeLa – IC50, dose response (AID 1117349). Type of experiment: functional, cell-based.
The nature of experiment [26]: cells. Type of experiment: functional, cell-based. The conditions noted are these: INS-1E.
The nature of experiment [27]: IC50 of insulin release inhibition, rat insulinoma INS-1E line, 5 mM glucose, cell-based (AID 1117331). Type of experiment: functional.

Active and inactive are the calls of the source.

Sequence of Paired box protein Pax-8 (Q06710 whole entry): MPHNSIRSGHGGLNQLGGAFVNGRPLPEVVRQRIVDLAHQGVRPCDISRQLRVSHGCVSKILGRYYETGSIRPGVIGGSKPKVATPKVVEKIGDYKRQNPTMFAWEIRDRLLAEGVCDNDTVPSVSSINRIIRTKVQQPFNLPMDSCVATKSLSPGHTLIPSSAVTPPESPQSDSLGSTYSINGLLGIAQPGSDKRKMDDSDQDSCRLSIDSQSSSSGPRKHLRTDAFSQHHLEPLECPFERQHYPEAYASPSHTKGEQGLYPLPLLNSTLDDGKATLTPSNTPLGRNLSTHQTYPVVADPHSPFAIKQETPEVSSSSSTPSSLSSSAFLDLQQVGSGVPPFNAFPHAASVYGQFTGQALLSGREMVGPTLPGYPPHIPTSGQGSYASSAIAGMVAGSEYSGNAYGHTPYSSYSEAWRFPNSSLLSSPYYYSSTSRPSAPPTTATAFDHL

One may read the AC50 as the concentration giving half of the maximal activity seen. For the compound `C[C@H](CO)N1C[C@H](C)[C@@H](CN(C)S(=O)(=O)c2ccc(-c3ccccc3)cc2)OCc2cn(nn2)CCCC1=O`, the AC50 is 3.99 µM (active) in experiment [1], > 70 µM (inactive) in experiment [2], > 70 µM (inactive) in [3] and > 70 µM (inactive) in experiment [4].

One may read the IC50 as the concentration that inhibits the measured activity by half. For the compound `COc1ccc(CN(C)C[C@H]2Oc3c(NC(=O)c4ccncc4)cccc3C(=O)N([C@@H](C)CO)C[C@@H]2C)cc1`, the AC50 in [5] was 0.127 µM (active); in experiment [7], 0.127 µM (active); in experiment [13], 0.25 µM (active). Further, the IC50 in experiment [6] is 0.478 µM (active); in experiment [8], > 100 µM (inactive); in experiment [9], 8.41 µM (inactive); in experiment [10] it was 15.4 µM (inactive); in experiment [11], 8.41 µM (inactive); in experiment [12] it was > 100 µM (inactive).

For `CCOC(=O)c1c(C)oc2c1c(/C=N/CC1CCCO1)c(O)c1ccccc12` (configuration not stated), the IC50 in experiment [14] is > 50 µM (not active); in [15], 13.307 µM.

In the case of `O=C(Nc1ccccc1F)N1CCCCN2[C@H](CO)[C@@H](c3ccc(/C=C/c4ccccc4)cc3)[C@@H]2C1`, in experiment [16], the AC50 is 6.45 µM (active).

On to `C[C@H](CO)N1C[C@H](C)[C@H](CN(C)S(=O)(=O)c2ccc(F)cc2)OCc2ccccc2-c2c(n(C)c3ccccc23)C1=O`, for which the half-maximal activity concentration (AC50) is 0.572 µM (active) in [17]; 0.481 µM (active) in experiment [18]; 1.1 µM (active) in [19]; 0.36 µM (active) in experiment [20]; 7.35 µM (active) in experiment [21].

With `c1ccc2sc(SSc3nc4ccccc4s3)nc2c1` [BENZOTHIAZYL DISULFIDE], the IC50 was 9.23 µM (inactive) in [22] and 5.58 µM (inactive) in experiment [23].

Turning to `COC(=O)Nc1nc2cc(C(=O)c3ccccc3)ccc2[nH]1` [MEBENDAZOLE], the results for the IC50 in experiment [24] and in experiment [25] were 0.08 µM (active) and 0.0761 µM (active), respectively.

As to `Cc1ccc(S(=O)(=O)NC(=O)NN2CCCCCC2)cc1` [TOLAZAMIDE], the IC50 in experiment [26] was > 33.3 µM (inactive); in [27], 6.98 µM (inactive).
